These results are taken from US5045222A, “Use of triacylated ethanolamines as liquid, water-miscible peroxide activators” (Hoechst Aktiengesellschaft, priority 1988, dated 1991).

Data set [1] can be described thus: Determination of the water solubility of activators. The following applies: for Water solubility / miscibility with water (words): in words, temperature not stated. Format: physicochemical. The procedure: The water solubility of N,N,O-triacetylethanolamine (TAEA) and ethylidene benzoate acetate (EBA) was determined by known methods.
For data set [2] the following is noted: background discussion; cited from earlier work.
The nature of data set [3]: Perhydrolysis rate of dissolved activator (titration of total active oxygen and peracid). The settings on record: for time required for 90% conversion of activator: predissolved activator; for Perhydrolysis rate / release of peracid: in words, with hydrogen peroxide or percompounds. As for the experimental part: The experimental determination of the perhydrolysis rate of the activators TAEA (triacetylethanolamine), TAED (tetraacetylethylenediamine) and isonobs (sodium isononanoyloxybenzenesulfonate) was carried out under wash conditions in a 2 1 beaker in a thermostat. An electrical stirrer ensured uniform stirring of a 2 percent strength solution of an IEC standard detergent composition, to which perborate had been added together with 20 ml of a cherry juice solution as a bleachable stain.
The activators were predissolved in a little water and added to the abovementioned temperature controlled washing liquor. At each set time interval (1-5 minutes) a 50 ml sample was removed and titrated for total active oxygen and peracid.
pH dependence of perhydrolysis of dissolved bleach activators at 22° C.; time required [min] for 90% conversion of activator: […]

The nature of data set [4]: Wash tests in Launder-O-meter at 60° C., tea stain.
A short description of data set [5]: Washing tests in Launder-O-meter at room temperature, tea stain. The settings on record: 25° C.

Regarding `CC(=O)OC(C)OC(=O)c1ccccc1` (stereo not shown) [EBA, ethylidene benzoate acetate], the Water solubility in data set [1] (23° C.) came to 700 µg/mL; in data set [1] (37° C.) it was 800 µg/mL. Also, the “Solubility in water (words, prior-art activator)” value in data set [2] is recorded as “limited solubility in water”.

`CC(CC(=O)Oc1ccc(S(=O)(=O)[O-])cc1)CC(C)(C)C.[Na+]` (stereo not shown) [Isonobs, sodium isononanoyloxybenzenesulfonate]: the “time required for 90% conversion of activator” value in data set [3] (pH 9, 22° C.) was greater than 30 min; in data set [3] (pH 10, 22° C.) it was 11 min; in data set [3] (pH 11, 22° C.) it was 1.5 min.

Turning to `CC(=O)OCCN(C(C)=O)C(C)=O` [TAEA, N,N,O-triacetylethanolamine], the “Water solubility (infinite, unit not given)” value in data set [1] (23° C.) and in data set [1] (37° C.) was “.infin” throughout. The “Water solubility / miscibility with water (words)” value in data set [1] is “complete miscibility of the compound with water”; in data set [1] (listed as triacetylethanolamine), “has the best water solubility and is miscible with water in any proportion”. In addition, the “Perhydrolysis rate / release of peracid” value in data set [3] was “releases one mole of peracetic acid very rapidly, in fact as rapidly as predissolved TAED”; in data set [3] (listed as Triacetylethanolamine (TAEA)), “readily reacts in aqueous solution with hydrogen peroxide or inorganic persalts to form peracetic acid”. Moreover, the “time required for 90% conversion of activator” value in data set [3] (pH 9, 22° C.) was 12 min; in data set [3] (pH 10, 22° C.), 7 min; in data set [3] (pH 11, 22° C.) it was 1 min. Also, the “bleaching performance” value in data set [4] (tea and red wine stains) was “superior in bleaching performance to previously known EDA and to non-liquid DALEA”. Moreover, in data set [5] (tea and red wine stains), the “bleaching effect” value is listed as “superior bleaching effect”.

With `CC(=O)N(CCN(C(C)=O)C(C)=O)C(C)=O` [TAED, tetraacetylethylenediamine], the “time required for 90% conversion of activator” value was determined as 15 min in data set [3] (pH 9, 22° C.); 7 min in data set [3] (pH 10, 22° C.); 1 min in data set [3] (pH 11, 22° C.).

Turning to sodium perborate [PB], the Reflectance values in data set [4] (tea stain, 30 minutes, 25 mg active oxygen per liter, 1.5 g IEC basic washing powder per liter) is recorded as 62.9. In data set [5] (tea stain, 15 minutes, 3% activator and 10% sodium perborate), this molecule came in with a Reflectance of 52.8.
